Earlier results on one compound are cited in PMC8533211, “Computationally Assisted Lead Optimization of Novel Potent and Selective MAO-B Inhibitors” (Biomedicines, 2021).

Series [1] concerns human recombinant MAO B. The conditions noted are these: cited from earlier work.
In series [2] the target is T1, human recombinant MAO-B (Homo sapiens, UniProt P27338).
T1 sequence (P27338 1-520): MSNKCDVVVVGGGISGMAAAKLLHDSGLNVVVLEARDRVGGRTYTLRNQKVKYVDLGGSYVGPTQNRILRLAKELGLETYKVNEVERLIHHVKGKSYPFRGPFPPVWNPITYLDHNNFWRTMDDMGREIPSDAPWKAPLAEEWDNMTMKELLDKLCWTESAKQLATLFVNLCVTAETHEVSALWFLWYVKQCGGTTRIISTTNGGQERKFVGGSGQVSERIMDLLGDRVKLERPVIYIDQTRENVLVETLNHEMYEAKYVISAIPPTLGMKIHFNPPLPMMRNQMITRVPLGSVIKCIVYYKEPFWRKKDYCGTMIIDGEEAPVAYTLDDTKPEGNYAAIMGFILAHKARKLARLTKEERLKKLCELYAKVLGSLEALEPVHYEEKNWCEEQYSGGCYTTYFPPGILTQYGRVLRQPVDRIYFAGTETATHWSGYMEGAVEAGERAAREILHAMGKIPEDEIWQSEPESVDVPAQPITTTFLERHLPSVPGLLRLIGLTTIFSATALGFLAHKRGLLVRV
Details: purchased BD Biosciences (Bedford, MA, USA). Particulars: cited from earlier work.

Series [3] relates to human recombinant MAO A. The conditions noted are these: human recombinant; kynuramine; cited from earlier work.

Regarding `COc1ccc(-c2cc(=O)c3c(O)cc(OC)cc3o2)cc1` [Acacetin 7-O-methyl ether], in series [1], the “Selectivity Index MAO-A/B” value is more than 505.05 and the “selectivity index (SI) for MAO A/B” value is listed as more than 505 fold. For the same compound, in series [1] (human recombinant, kynuramine), the half-maximal inhibitory concentration (IC50) (in general, the concentration at which inhibition is half-maximal) is 198 ± 1 nM. Moreover, the “Monoamine Oxidase B Type of Inhibition” value in series [2] is given as “competitive/partially reversible”. The IC50 in series [3] is more than 100000 nM.
